Assay [1] relates to E2-stimulated immature mouse uterine growth. As to the kind of experiment: immature mouse uterine growth assay (inhibition of E2-stimulated uterine growth). As to conditions: for inhibition of E2-stimulated uterine growth, dose response profile: over a number of doses (FIG. 6); for Inhibition ± S.E, % Mouse uterine growth Intraperitoneal: 1 μg/mouse intraperitoneally, E2-stimulated, mean±S.E. (n=5), * p<0.05 vs E2 alone. Format: in vivo. The method, then:
Four cyclic peptides of decreasing ring size (Table 1) were synthesized and were assessed for antiestrogenic activity using the immature mouse uterine assay. Negative control mice received saline alone. Positive control mice received E2 alone. AFPep was used as a positive control peptide and cyclic Scr was used as a peptide control. Mice were injected intraperitoneally (i.p.) with each of these peptides at a dose of 1 μg/mouse. One hour later mice received 0.5 ug 17β-estradiol (E2) i.p. Twenty-two hours later uteri were dissected, weighed, and normalized to body weight. The results are reported as mean±S.E (n=5) for four independent experiments.
(§1) A ‘tail’ was attached to a nine-amino acid ring and included 1 or 2 amino acids defined as hydrophilic or hydrophobic based on the nature of their side-chains. Tails comprising the following amino acid(s): serine (S), tyrosine (Y), […], glutamic acid (E), phenylalanine-serine (FS) and tyrosine-isoleucine (YI) represent hydrophilic tails and tails comprising the following amino acid(s), phenylalanine (F), isoleucine (I) and phenylalanine-isoleucine (FI) are hydrophobic tails. All peptides were administered at a dose of 1 μg/mouse intraperitoneally or 10 μg/mouse by oral gavage. Values are presented as mean±S.E. (n=5). In culture, T47D cells were treated with each peptide at a concentration of 1 μM. Values are presented as mean±S.E (n=6). […] Wilcoxon Rank Sum Test.
(§2) All peptides were administered at a dose of 1 μg/mouse intraperitoneally or 10 μg/mouse by oral gavage. Values are presented as mean±S.E (n=5). In culture, T47D cells were treated with each peptide at a concentration of 1 μM. Values are presented as mean±S.E (n=6). […] Wilcoxon Rank Sum Test.
To evaluate peptide-induced inhibition by the peptide of the present invention of estrogen-stimulated proliferation of normal tissue, the immature mouse uterine growth assay was utilized. Briefly, 13-15 day-old Swiss/Webster female mice, 6-8 g in body weight, were distributed into treatment groups of 5 mice per group so that each group contained animals of the same range of body weight. The peptide of the invention was injected i.p., s.c., or p.o. into the mice. One hour later, estradiol (E2) or vehicle control for E2 was injected i.p. Twenty-two hours after the second injection, uteri were harvested, trimmed free of mesenteries, and immediately weighed. The uterine weights were normalized to mouse body weights to compensate for differences in body weight among litters of the same age. Experiments employed a minimum of five mice per group and the mean normalized uterine weight±SE for each group was calculated. Percent growth inhibition in a test group was calculated from normalized uterine wet weights as described below.
The ability to inhibit E2-stimulated growth of normal mouse uterus was used as a screening assay for biological activity of AFPep analogs. In general, inhibitory activity ≥20% is considered to be biologically significant. Each analog's inhibitory effect on E2-stimulated growth was compared to AFPep (a positive control) and to PGVGQ (SEQ ID NO: 51)(a negative control). PGVGQ (SEQ ID NO: 51 amino acids 478-482 of AFP) is a portion of the primary structure of AFP near to the anti-cancer active site of AFP and is comprised of amino acids (P, V, and G) that are important components of AFPep.

For assay [2], the system named is T47D human breast cancer cells. Nature of the assay: T47D cell proliferation assay in the presence of E2. It is filed as cell-based. The note with it: peptide 1 μM; E2-stimulated; mean±S.E (n=6); * p<0.05 vs E2 alone. How it is done:
Anticancer activity of the cyclic peptides was also evaluated using the T47D cell proliferation assay. T47D cells were cultured on collagen-IV coated 24-well plates and treated with each of above peptides in the presence of E2. Final peptide concentrations of each peptide were 10^−6 M and final E2 concentration was 1 nM. Values are reported as mean±SEM (n=6) of four independent experiments. […] One-way ANOVA followed by Tukey's multiple comparison test. p≤0.05.
as §1, §2

In assay [3] the test system is Estrogen independent (ER−) MDA MB231 cells. Nature of the assay: MDA MB231 cell growth (MTT assay). Format: cell-based, human. The note with it: 10^−6M, 7 days, MTT (FIG. 9). The method, then: Estrogen independent (ER^−)MDA MB231 cells were plated at 20,000 cells/well/ml in a collagen-IV coated 24-well plate. The next day, cells were treated with vehicle (0.1% ethanol), AFPep, cyclo[EKTOVNOGN] (SEQ ID NO: 33) YI, for 7 days. Each peptide was treated at 10^−6M. Cell proliferation was determined by MTT assay. Each value is the mean±S.E. (n=4) of three independent experiments.
In general terms: Tetrazolium dyes change colour on reduction, which living cells bring about.

Assay [4] relates to T47D human breast cancer cells. As to the kind of experiment: T47D cell proliferation assay in the presence of E2. The note with it: different concentrations in vitro (FIG. 7). Format: cell-based.
Assay [5] relates to MCF-7 human breast cancer xenograft. As to the kind of experiment: E2-supplemented MCF-7 human breast cancer xenograft assay in SCID mice. Format: in vivo, mouse. The note with it: E2 pellets, 10 μg s.c., 10 μg i.p. or 100 μg p.o. once daily day 1 to day 20 (FIG. 8). From the text: To determine the effectiveness of cyclo[EKTOVNOGN] (SEQ ID NO: 33)FI as a potential cancer therapeutic agent in a clinically relevant model, we assessed the effect of cyclo[EKTOVNOGN] (SEQ ID NO: 33)FI on E2-supplemented MCF-7 human breast cancer xenograft growth using different routes of administration. Briefly, a piece of MCF-7 human breast cancer measuring approximately 2 mm in average diameter was implanted under the kidney capsule of SCID mice. Mice were supplemented with E2 pellets implanted subcutaneously, at the time of tumor implantation, for a steady state of E2 at 10^−9M. Mice were treated with 10 μg subcutaneously (s.c.), 10 μg intraperitoneally (i.p.) or 100 μg orally (p.o.) cyclo [EKTOVNOGN] (SEQ ID NO: 33) FI was administered once daily from day 1 to day 20 of the experiment. Tumor size was measured as described in materials and methods. Data is presented as mean±S.E (n=5). After 20 days of treatment, the percentage change in tumor volume for each cyclo [EKTOVNOGN] […] One-way ANOVA followed by Tukey's multiple comparison test. *p<0.01 vs. E2.
The peptides of the invention were evaluated for their ability to inhibit tumor growth in a human tumor xenograft assay. Briefly, MCF-7 human breast cancer cells were obtained from ATCC® (Rockville, Md.) and were grown in DMEM supplemented with 5% FCS, 1% non-essential amino acids, 10 ng/ml insulin, 2 mM L-glutamine, 100 units/ml penicillin, and 100 μg/ml streptomycin. MCF-7 cells from culture were solidified into a fibrin clot. The tumor-containing clots were cut into pieces about 1.5 mm in diameter and implanted under the kidney capsule of severe combined immunodeficient (ICR-SCID) mice (Taconic Farms, Germantown, N.Y.) as described in Bennett et al. (Clin. Cancer Res. 1998; 4:2877-84).
Estrogen supplementation of mice was required for the growth of MCF-7 tumors. […] Tumor size was evaluated during survival laparotomy using a dissecting microscope at the time of tumor implantation and at days 15 and 30 after tumor implantation. […]
(In general: Xenograft models place foreign cells or tissue in a host animal.)

Non-standard residues stand in square brackets, D forms with d. Residues, ends and D or L forms follow the SMILES beside them. Groups on a side chain read outwards from the residue. No end group written: not given here. Hyp = O=C(O)[C@@H]1C[C@@H](O)CN1

`CC[C@H](C)[C@H](NC(=O)[C@H](Cc1ccccc1)NC(=O)C[C@@H]1NC(=O)CNC(=O)[C@@H]2C[C@@H](O)CN2C(=O)[C@H](CC(N)=O)NC(=O)[C@H](C(C)C)NC(=O)[C@@H]2C[C@@H](O)CN2C(=O)[C@H]([C@@H](C)O)NC(=O)[C@H](CCCCN)NC(=O)[C@H](CCC(=O)O)NC1=O)C(N)=O` [cyclo[EKTOVNOGN]FI] (cyclo(EKT[Hyp]VN[Hyp]GD([Phe-Ile-NH2]))): the “efficacy in inhibition of E2-stimulated growth compared with AFPep” value in assay [1] (in vivo and in vitro, summary statements) is recorded as “more effective at inhibiting E2-stimulated growth than AFPep”. For the same compound, the “inhibition of E2-stimulated uterine growth, dose response profile” value (shortened to “inhibition … dose response profile”) in assay [1] was “significantly inhibited E2-stimulated growth in a dose-dependent manner and maintained its effectiveness at very high doses”. Besides, the “Inhibition ± S.E, % T47D cell proliferation” value in assay [2] is given as 66 ± 2* %. For the same compound, in assay [3], the “effect on growth of ER− MDA MB 231 cells in culture” value is recorded as “no effect”. For the same compound, the “inhibition of E2-stimulated T47D human breast cancer cell growth, concentration response profile” value (from here on “inhibition … concentration response profile”) in assay [4] is given as “inhibited E2-stimulated T47D human breast cancer cell growth in a concentration-dependent manner, even at high concentrations”. Further, the figures for the “inhibition of MCF-7 xenograft growth (change in tumor volume)” value in assay [5] and in assay [5] (listed as cyclo [ETKOVNOGN] FI) were “significantly different from the E2 alone group” and “significantly inhibited the growth of tumor xenografts”, respectively.
With `CC[C@H](C)[C@H](NC(=O)C[C@@H]1NC(=O)CNC(=O)[C@@H]2C[C@@H](O)CN2C(=O)[C@H](CC(N)=O)NC(=O)[C@H](C(C)C)NC(=O)[C@@H]2C[C@@H](O)CN2C(=O)[C@H]([C@@H](C)O)NC(=O)[C@H](CCCCN)NC(=O)[C@H](CCC(=O)O)NC1=O)C(N)=O` [cyclo[EKTOVNOGN]I] (cyclo(EKT[Hyp]VN[Hyp]GD([Ile-NH2]))), the “Inhibition ± S.E, % T47D cell proliferation” value in assay [2] was 55 ± 6* %.
`CC[C@H](C)[C@H](NC(=O)[C@H](Cc1ccc(O)cc1)NC(=O)C[C@@H]1NC(=O)CNC(=O)[C@@H]2C[C@@H](O)CN2C(=O)[C@H](CC(N)=O)NC(=O)[C@H](C(C)C)NC(=O)[C@@H]2C[C@@H](O)CN2C(=O)[C@H]([C@@H](C)O)NC(=O)[C@H](CCCCN)NC(=O)[C@H](CCC(=O)O)NC1=O)C(N)=O` [cyclo[EKTOVNOGN]YI] (cyclo(EKT[Hyp]VN[Hyp]GD([Tyr-Ile-NH2]))): in assay [1], the “inhibition … dose response profile” value is “very little antiestrogenic activity”. In assay [2], the “Inhibition ± S.E, % T47D cell proliferation” value is 24 ± 3%. In addition, the “inhibition … concentration response profile” value in assay [4] is on record as “ineffective”.
For the compound TOVNO (T[Hyp]VN[Hyp]), the “inhibition … dose response profile” value in assay [1] is given as “undesirable”. For the same compound, the “inhibition … concentration response profile” value in assay [4] is given as “undesirable”.
On to TOVNOGNEK (T[Hyp]VN[Hyp]GNEK), for which the “inhibition … dose response profile” value in assay [1] is “superior dose response profile”. Also, the “inhibition … concentration response profile” value in assay [4] was “superior dose response profile”. In addition, the “inhibition of MCF-7 xenograft growth (change in tumor volume)” value in assay [5] is given as “efficacy equivalent to AFPep”.
In the case of “cyclo[EKTOVGOGN]K (EKT[Hyp]VG[Hyp]GNK; bridge (positions not given here); not fully specified (bridges); printed as cyclo[EKTOVGOGN]K; also: cyclic ring with lysine tail, ring closure and tail attachment not given here)”, the “Inhibition ± S.E, % Mouse uterine growth Intraperitoneal” value in assay [1] is 7 ± 3%.
Consider cyclo[EKTOVNOGN]FS, for which, in assay [1], the “Inhibition ± S.E, % Mouse uterine growth Intraperitoneal” value is on record as 7 ± 3%.

These data come from patent publication US10167326B2, “Alpha-fetoprotein “ring and tail” peptides” (ALBANY MEDICAL COLLEGE, priority 2010, dated 2019).
